Entries after “also recorded” stand apart in the source; their conditions may differ. Like-named read-outs stand apart in the source and are kept apart here.
Key:
HIV-1 (strain LAV-1) = assay: HIV-1 replication in infected human PBM cells (RT activity of disrupted virions); format: cell-based; conditions: for EC50: read-out: EC50 (median effective concentration)
Excerpt: Cells, virus strains, and cell culture assays. PBM cells from healthy HIV-1 and hepatitis B virus seronegative donors were isolated and propagated as described previously (35). HIV-1 (strain LAV-1) was obtained from the Centers for Disease Control, Atlanta, and propagated in PHA-stimulated human PBM cells as described previously (35). The details of the methods used for infection and assaying the anti-HIV-1 effect in infected human PBM cells have been reported (35).
RT activity assay with disrupted virions. Six ml supernatant from each culture was clarified from cells at 300× g for 10 minutes. Virus particles were then pelleted from 5 ml samples at 40,000 rpm for 30 minutes using a Beckman 70.1 Ti rotor and suspended in 200 μl of virus disrupting buffer [50 mM Tris-HCl pH 7.8, 800 mM NaCl, 20% glycerol, 0.5 mM phenylmethyl sulfonyl fluoride (PMSF), and 0.5% Triton X-100].
The RT assays were performed at 37° C. in 96-well microtiter plates using methods described previously (35, 38). The results were expressed as dpm/ml of the originally clarified supernatant.
(§1) Calculation of synergy. […] Briefly, the method involves plotting of dose-effect curves for each compound alone and in combinations. It is essential to use a fixed ratio of the agents in multiply diluted combinations in order to use the median-effect equation: fa /fu =(C/Cm)^m. In this equation, C is the concentration, fa and fu are the fractions of the system which are affected and unaffected, respectively, by concentration C. Cm is the concentration required for a 50% effect (analogous to IC50 to EC50 values), and m is a Hill-type coefficient signifying the sigmoidicity of the dose-effect curve. The slopes (m) of the dose-effect plots, obtained for the studied compounds, provided information as to whether the compounds are mutually exclusive (i.e. similar modes of action) or mutually non-exclusive (i.e. different modes of action). When the plots of both compounds and their combination were all parallel, the effects of the two compounds were mutually exclusive. The interaction between two compounds was determined by calculating the combination index (C.I.) with assumptions, where appropriate, of either mutually exclusive or non-exclusive interactions. When uncertainty existed as to whether the drugs acted in similar or independent manners, the determination of C.I.-values were calculated under each assumption and compared. Values of C.I.<1 indicated synergy, C.I.=1 indicated additive effects, and C.I.>1 indicated antagonism. A computer program obtained from Elsevier-Biosoft, Cambridge, U.K. was used for automatic analysis of all dose-effect data. Additional details on using this method have been reported previously (33).

HCMV strain Ad169 = assay: HCMV plaque reduction assay in HEL cells; format: cell-based, human cytomegalovirus; conditions: for EC50: Human betaherpesvirus 5, AD169, HEL, CMV infected cells
Protocol: HCMV strain Ad169 was a gift from Dr. Fred Rapp, Hersey, Pa. Human embryonic lung (HEL) cells, obtained from the American Type Culture Collection, Rockville, Md., were cultured in Dulbecco modified Eagle medium as decribed previously (39). Viable cells were conducted microscopically using a hemacytometer and the trypan blue exclusion method. Plaque reduction assays were performed in confluent monolayers of HEL cells in 6-well plates (Costar, Cambridge, Mass.) with 100 to 200 pfu of HCMV Ad169. After an adsorption period of 1 hour, unadsorbed virus was removed and the monolayers were overlaid with Dulbecco modified Eagle medium containing 0.75% SeaPlaque agarose (FMC BioProducts, Rockland, Me.), 2% heat inactivated fetal calf serum, and the appropriate concentration of drug. The plates were incubated at 37° C. in a humidified atmosphere containing 5% CO2 for 10 to 12 days. The monolayers were then fixed with 10% buffered Formalin (Fisher Scientific Co, Fair Lawn, N.J.), stained with crystal violet, and the number of plaques were counted.
as §1

[1] = molecular target: T1, HIV-1 reverse transcriptase (Human immunodeficiency virus type 1 group M subtype B, UniProt P04585); assay: RT activity assay with partially purified enzyme; format: biochemical
T1 construct: HIV-1 reverse transcriptase was isolated from detergent disrupted virions; endogenous in cells; host or cells: virions from cell-free supernatant of HIV-1 infected PHA-stimulated human PBM cells, ion-exchange chromatography
Protocol: RT activity assay with partially purified enzyme. HIV-1 reverse transcriptase was isolated from detergent disrupted virions obtained from the cell-free supernantant of infected PHA-stimulated PBM cells. The enzyme was purified by passing the extract through ion-exchange chromatography columns as described previously (12). The enzyme was characterized as HIV-1 RT based on its specific requirements according to previous description (1, 18). The standard reaction mixture (100 μl) contained 100 mM Tris-HCl (pH 8.0), 50 mM KCl, 2 mM MgCl2. 5 mM dithiothreitol 400 μg/ml bovine serum albumin, 0.05 U/ml (3.1 μg/ml) of (rA)n (dT)12-18, 1 μM [^3 H] dTTP (spec. act. 18,000 cpm/pmol) and 10 μl of HIV-1 Rt. The reactions were incubated and processed as previously described (7).
as §1

HCMV DNA polymerase = molecular target: T2, HCMV DNA polymerase (Human cytomegalovirus, UniProt P08546); assay: CMV DNA polymerase assay; format: biochemical
T2 construct: gift from Dr. B. Wahren, National Bacteriological Laboratory, Stockholm
T2 sequence (P08546 whole entry): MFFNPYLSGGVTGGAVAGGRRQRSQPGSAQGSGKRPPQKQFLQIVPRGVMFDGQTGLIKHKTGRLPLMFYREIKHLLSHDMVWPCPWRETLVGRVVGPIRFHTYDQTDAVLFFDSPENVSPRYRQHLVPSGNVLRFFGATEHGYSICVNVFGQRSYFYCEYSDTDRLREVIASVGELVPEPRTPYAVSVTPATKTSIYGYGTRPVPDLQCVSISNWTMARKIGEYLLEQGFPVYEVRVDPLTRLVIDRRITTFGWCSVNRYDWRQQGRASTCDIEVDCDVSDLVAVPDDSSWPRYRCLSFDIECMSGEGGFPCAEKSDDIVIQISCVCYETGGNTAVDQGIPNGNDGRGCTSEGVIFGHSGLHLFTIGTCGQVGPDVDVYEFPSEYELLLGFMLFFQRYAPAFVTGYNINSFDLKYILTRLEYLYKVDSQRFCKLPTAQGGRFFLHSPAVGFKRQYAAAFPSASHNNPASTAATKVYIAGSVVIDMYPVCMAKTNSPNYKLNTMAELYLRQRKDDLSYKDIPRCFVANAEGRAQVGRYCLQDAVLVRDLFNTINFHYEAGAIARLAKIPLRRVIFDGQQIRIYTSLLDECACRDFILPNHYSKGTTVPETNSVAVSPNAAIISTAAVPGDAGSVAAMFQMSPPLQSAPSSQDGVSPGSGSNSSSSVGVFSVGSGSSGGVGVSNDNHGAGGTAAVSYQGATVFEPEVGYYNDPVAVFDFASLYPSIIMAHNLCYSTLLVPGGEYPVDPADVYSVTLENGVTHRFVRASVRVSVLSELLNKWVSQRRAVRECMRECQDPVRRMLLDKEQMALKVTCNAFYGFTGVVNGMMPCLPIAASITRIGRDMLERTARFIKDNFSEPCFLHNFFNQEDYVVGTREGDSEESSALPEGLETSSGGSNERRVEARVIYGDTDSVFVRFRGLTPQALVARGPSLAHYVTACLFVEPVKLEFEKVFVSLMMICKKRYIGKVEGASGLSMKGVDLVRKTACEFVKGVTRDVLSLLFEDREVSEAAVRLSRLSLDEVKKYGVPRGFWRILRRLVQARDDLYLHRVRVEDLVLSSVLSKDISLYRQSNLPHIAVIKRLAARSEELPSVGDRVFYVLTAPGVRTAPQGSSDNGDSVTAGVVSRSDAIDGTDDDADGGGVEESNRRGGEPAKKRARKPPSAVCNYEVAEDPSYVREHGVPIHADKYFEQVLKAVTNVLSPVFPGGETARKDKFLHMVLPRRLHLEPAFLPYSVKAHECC
Excerpt: CMV DNA Polymerase Assay. The partially purified HCMV-specific DNA polymerase was a generous gift from Dr. B. Wahren, National Bacteriological Laboratory, Stockholm. The procedure for the purification of HCMV DNA polymerase by sequential chromatographic steps on DEAE-cellulose (Whatman DE-52) and phosphocellulose (Whatman P-11) and the measurement of enzyme activity have been described previously (5).
as §1

[2] = system: uninfected PHA-stimulated human PBM cells; assay: Cell proliferation / toxicity in uninfected PBM cells (trypan blue exclusion); format: cell-based
Protocol: Cell proliferation. The drugs alone and in combination were evaluated for their potential toxic effects on uninfected PHA-stimulated human PBM cells. Flasks were seeded so that the final cell concentration was 3×10^5 cells ml. The cells were cultured with and without drug for 6 days at which time aliquots were counted for cell viability by using the trypan blue exclusion method.

HIV-1 = conditions: patients, after a 14-day treatment; cited from earlier work
[3] = Human immunodeficiency virus 1, PBMC

Q: What does the source list for `Cc1cn([C@H]2C[C@H](N=[N+]=[N-])[C@@H](CO)O2)c(=O)[nH]c1=O` [AZT, 3'-azido-3'-deoxythymidine]?
A: RT activity (HIV-1 (strain LAV-1); AZT 0.002 μM): 750 kdpm/ml; RT activity (HIV-1 (strain LAV-1); AZT 0.004 μM): 584 kdpm/ml; RT activity (HIV-1 (strain LAV-1); AZT 0.008 μM): 343 kdpm/ml; RT activity (HIV-1 (strain LAV-1); AZT 0.016 μM): 35.9 kdpm/ml; inhibition at 0.002 µM (HIV-1 (strain LAV-1); [3]): 3%; inhibition at 0.004 µM (HIV-1 (strain LAV-1); [3]): 24.5%; inhibition at 0.008 µM (HIV-1 (strain LAV-1); [3]): 55.7%; inhibition at 0.016 µM (HIV-1 (strain LAV-1); [3]): 95.5%; EC50 (HIV-1 (strain LAV-1); [3]): 6 nM; EC50 (HCMV strain Ad169; extrapolated in order to calculate C.I.-values, read-out: EC50 (extrapolated)): 383000 nM; inhibitory effect on multiplication of HCMV Ad169 in HEL fibroblasts (HCMV strain Ad169; concentrations up to 200 μM): virtually without inhibitory effect; effect against HCMV replication in cell culture (HCMV strain Ad169; human embryonic lung fibroblasts): no inhibitory effect; also recorded: neither inhibited the replication

Q: With `Cc1cn([C@H]2C[C@H](N=[N+]=[N-])[C@@H](COP(=O)(O)OP(=O)(O)OP(=O)(O)O)O2)c(=O)[nH]c1=O` [AZT-TP, 3'-azido-3'-deoxythymidine-5'-triphosphate] as the compound, how does the “m ± SE (slope of median effect plot)” value ([1]; HIV-1 reverse transcriptase) read?
A: The value was 0.87±0.03.

Q: What about the EC50 ([1]; HIV-1 reverse transcriptase, read-out: EC50 (median effective concentration)) of the same compound?
A: The EC50 was 3 nM.

Q: And the “m ± SE (slope of median effect plot)” value (HCMV DNA polymerase; CMV DNA polymerase)?
A: Its value is 0.88 ± 0.09.

Q: Which inhibition at 8 µM (HIV-1 (strain LAV-1); [3]) does the source give for `O=C(O)P(=O)(O)O` [PFA, phosphonoformic acid] here?
A: The inhibition at 8 µM was 9.1%.

Q: What about the inhibition at 16 µM (HIV-1 (strain LAV-1); [3]) of the same compound?
A: The inhibition at 16 µM was 41.1%.

Q: What about the inhibition at 32 µM (HIV-1 (strain LAV-1); [3]) of the same compound?
A: Its inhibition at 32 µM is 75.5%.

Q: What about the inhibition at 64 µM (HIV-1 (strain LAV-1); [3]) of the same compound?
A: Its inhibition at 64 µM is 88.1%.

Q: What about the inhibition at 128 µM (HIV-1 (strain LAV-1); [3]) of the same compound?
A: The inhibition at 128 µM was 95.5%.

Q: What about the EC50 (HIV-1 (strain LAV-1); [3]) of the same compound?
A: Its EC50 is 22000 nM.

Q: And the RT activity (HIV-1 (strain LAV-1); PFA 8 μM)?
A: The RT activity was 703 kdpm/ml.

Q: What about the RT activity (HIV-1 (strain LAV-1); PFA 16 μM) of the same compound?
A: Its RT activity is 455 kdpm/ml.

Q: What about the RT activity (HIV-1 (strain LAV-1); PFA 32 μM) of the same compound?
A: The RT activity was 190 kdpm/ml.

Q: And the RT activity (HIV-1 (strain LAV-1); PFA 64 μM)?
A: Its RT activity is 93.1 kdpm/ml.

Q: And the RT activity (HIV-1 (strain LAV-1); PFA 128 μM)?
A: The RT activity was 35.9 kdpm/ml.

Q: What about the “toxicity to PBM cells” value [2] of the same compound?
A: The value was “not toxic”.

Q: What about the EC50 [1] of the same compound?
A: The EC50 was 140 nM.

Q: What about the “m ± SE (slope of median effect plot)” value ([1]; HIV-1 reverse transcriptase) of the same compound?
A: Its value is 0.91±0.03.

Q: What about the “HIV-1 p24 antigen concentrations” value (HIV-1) of the same compound?
A: The value was “significant reduction”.

Q: What about the EC50 (HCMV strain Ad169; plaque formation, read-out: EC50 (median effective concentration)) of the same compound?
A: The EC50 was 34000 nM.

Q: And the “EC50 times lower than that of AZT-TP” value (HCMV DNA polymerase)?
A: The value was “more than 30 times”.

Q: And the “m ± SE (slope of median effect plot)” value (HCMV DNA polymerase; CMV DNA polymerase)?
A: Its value is 0.79 ± 0.02.

Q: What about the EC50 (HCMV DNA polymerase; CMV DNA polymerase, read-out: EC50 (median effective concentration)) of the same compound?
A: Its EC50 is 780 nM.

From patent US5686428A, “Pharmaceutical composition” (priority 1994, dated 1997)
